Data reported in ChEMBL document CHEMBL1909046, “DrugMatrix in vitro pharmacology data”.

Legend:
Thromboxane-A synthase = molecular target: T1, Thromboxane-A synthase (Homo sapiens, UniProt P24557); assay: biochemical; type: tissue-based, Platelet; conditions: platelet;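 also: enzyme inhibition assay with PGH2 supplied as substrate; in other assays of this panel Not Active means under 50% inhibition at 10 µM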
T1 sequence (P24557 whole entry): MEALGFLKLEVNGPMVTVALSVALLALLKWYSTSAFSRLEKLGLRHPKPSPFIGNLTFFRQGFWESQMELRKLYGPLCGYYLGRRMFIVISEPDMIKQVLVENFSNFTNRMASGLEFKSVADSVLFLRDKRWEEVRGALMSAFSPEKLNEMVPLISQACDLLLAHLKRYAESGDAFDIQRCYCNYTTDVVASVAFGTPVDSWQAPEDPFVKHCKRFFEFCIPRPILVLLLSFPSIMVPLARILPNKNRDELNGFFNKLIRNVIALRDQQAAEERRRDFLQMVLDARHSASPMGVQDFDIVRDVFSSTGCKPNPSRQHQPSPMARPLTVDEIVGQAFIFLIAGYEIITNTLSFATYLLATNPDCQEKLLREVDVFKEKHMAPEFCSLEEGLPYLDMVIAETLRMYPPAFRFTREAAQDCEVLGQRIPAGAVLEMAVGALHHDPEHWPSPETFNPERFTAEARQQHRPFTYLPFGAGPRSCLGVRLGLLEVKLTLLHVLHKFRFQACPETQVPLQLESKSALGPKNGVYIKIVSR

[1] = molecular target: T2, Receptor-type tyrosine-protein phosphatase C (Homo sapiens, UniProt P08575); set-up: species or system Escherichia coli;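 also: inhibition of CD45 enzyme activity measured using DiFMUP as substrate; in other assays of this panel Not Active means under 50% inhibition at 10 µM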
T2 sequence (P08575 whole entry): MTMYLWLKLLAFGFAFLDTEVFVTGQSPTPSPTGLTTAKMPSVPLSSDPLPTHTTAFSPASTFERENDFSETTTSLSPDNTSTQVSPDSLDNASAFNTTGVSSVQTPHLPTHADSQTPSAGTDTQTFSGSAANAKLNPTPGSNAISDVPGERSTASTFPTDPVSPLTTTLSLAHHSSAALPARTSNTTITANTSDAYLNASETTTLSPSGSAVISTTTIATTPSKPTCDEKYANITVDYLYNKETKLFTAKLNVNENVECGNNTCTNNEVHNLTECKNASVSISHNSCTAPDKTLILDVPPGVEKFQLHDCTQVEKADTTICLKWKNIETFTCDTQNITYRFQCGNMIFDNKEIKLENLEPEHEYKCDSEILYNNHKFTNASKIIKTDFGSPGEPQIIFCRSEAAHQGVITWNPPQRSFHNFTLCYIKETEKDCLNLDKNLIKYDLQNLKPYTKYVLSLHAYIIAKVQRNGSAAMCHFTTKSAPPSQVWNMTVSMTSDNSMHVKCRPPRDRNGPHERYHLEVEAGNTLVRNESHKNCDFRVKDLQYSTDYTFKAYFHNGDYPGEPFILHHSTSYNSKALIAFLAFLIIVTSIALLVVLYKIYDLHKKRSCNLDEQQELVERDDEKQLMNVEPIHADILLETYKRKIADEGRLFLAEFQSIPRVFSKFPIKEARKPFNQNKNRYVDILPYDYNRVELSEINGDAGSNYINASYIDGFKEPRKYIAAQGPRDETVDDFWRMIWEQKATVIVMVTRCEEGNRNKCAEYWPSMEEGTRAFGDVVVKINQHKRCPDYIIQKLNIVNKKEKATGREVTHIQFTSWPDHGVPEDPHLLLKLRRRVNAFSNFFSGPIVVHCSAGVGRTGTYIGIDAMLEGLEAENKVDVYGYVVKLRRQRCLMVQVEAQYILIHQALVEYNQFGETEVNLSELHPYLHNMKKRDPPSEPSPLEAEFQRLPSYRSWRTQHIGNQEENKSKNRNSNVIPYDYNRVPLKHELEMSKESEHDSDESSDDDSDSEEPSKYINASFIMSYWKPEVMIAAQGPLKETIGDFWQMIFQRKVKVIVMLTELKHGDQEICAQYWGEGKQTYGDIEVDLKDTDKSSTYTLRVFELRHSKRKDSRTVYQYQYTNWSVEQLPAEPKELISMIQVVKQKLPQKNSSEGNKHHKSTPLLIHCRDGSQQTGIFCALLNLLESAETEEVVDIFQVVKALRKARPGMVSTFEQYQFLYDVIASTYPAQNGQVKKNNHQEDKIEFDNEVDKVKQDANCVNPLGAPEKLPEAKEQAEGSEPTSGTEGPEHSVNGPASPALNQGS

B2 bradykinin receptor = molecular target: T3, B2 bradykinin receptor (Homo sapiens, UniProt P30411); type: cell membranes, Membrane; conditions: chem-1; also: in other assays of this panel Not Active means under 50% inhibition at 10 µM
T3 sequence (P30411 whole entry): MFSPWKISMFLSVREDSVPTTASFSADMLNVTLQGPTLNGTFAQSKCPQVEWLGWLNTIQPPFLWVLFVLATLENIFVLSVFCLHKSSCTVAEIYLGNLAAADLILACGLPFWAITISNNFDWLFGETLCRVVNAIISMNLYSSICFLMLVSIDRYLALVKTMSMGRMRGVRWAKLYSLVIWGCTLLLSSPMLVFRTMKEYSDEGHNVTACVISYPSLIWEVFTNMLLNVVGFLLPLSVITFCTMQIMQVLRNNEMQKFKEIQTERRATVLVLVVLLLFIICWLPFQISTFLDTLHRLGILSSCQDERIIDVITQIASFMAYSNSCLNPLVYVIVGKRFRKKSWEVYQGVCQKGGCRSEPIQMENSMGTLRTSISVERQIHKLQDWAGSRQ

Cathepsin G = molecular target: T4, Cathepsin G (Homo sapiens, UniProt P08311); assay: biochemical; type: tissue-based, Neutrophil; conditions: neutrophil;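 also: inhibition of Cathepsin G enzyme activity, tested on an AMC-conjugated peptide substrate; in other assays of this panel Not Active means under 50% inhibition at 10 µM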
T4 sequence (P08311 whole entry): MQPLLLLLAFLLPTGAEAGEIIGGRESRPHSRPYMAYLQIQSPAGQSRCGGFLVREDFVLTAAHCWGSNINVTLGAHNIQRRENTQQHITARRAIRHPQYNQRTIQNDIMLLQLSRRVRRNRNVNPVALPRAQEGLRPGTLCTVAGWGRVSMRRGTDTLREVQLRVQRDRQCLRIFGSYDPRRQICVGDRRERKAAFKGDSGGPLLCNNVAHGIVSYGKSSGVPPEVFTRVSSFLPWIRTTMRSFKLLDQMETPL

[2] = DRUGMATRIX: Phorbol Ester radioligand binding (ligand: [3H] PDBu); type: cell membranes, Mus musculus, ICR, Brain, Membrane; conditions: Not Active = under 50% inhibition at 10 µM
[3] = molecular target: Sodium-dependent dopamine transporter (Homo sapiens, UniProt Q01959); assay: DRUGMATRIX: Dopamine Transporter radioligand binding (ligand: [125I] RTI-55); type: cell membranes, CHO-K1, Membrane; conditions: cho-k1; Not Active = under 50% inhibition at 10 µM
Sodium-dependent dopamine transporter, sequence (Q01959 whole entry): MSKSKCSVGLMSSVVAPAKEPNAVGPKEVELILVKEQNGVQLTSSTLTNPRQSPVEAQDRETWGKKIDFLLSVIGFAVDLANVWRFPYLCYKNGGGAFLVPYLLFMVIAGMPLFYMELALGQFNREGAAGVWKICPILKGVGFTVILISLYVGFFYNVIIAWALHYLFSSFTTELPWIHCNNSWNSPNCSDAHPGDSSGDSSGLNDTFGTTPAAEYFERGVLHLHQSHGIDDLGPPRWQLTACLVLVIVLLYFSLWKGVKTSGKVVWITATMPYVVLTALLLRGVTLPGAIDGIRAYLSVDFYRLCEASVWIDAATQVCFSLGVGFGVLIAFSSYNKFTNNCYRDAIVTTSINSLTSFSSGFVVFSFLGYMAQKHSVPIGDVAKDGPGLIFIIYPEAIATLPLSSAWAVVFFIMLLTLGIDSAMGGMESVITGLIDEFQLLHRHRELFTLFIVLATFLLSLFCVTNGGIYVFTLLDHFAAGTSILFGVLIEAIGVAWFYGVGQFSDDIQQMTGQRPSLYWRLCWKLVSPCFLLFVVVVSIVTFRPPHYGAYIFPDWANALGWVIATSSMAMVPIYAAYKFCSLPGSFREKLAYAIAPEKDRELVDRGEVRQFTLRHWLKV

Melanocortin receptor 3 = Melanocortin receptor 3 (Homo sapiens, UniProt P41968); type: cell membranes, HEK293, Membrane; also: in other assays of this panel Not Active means under 50% inhibition at 10 µM
Melanocortin receptor 3, sequence (P41968 whole entry): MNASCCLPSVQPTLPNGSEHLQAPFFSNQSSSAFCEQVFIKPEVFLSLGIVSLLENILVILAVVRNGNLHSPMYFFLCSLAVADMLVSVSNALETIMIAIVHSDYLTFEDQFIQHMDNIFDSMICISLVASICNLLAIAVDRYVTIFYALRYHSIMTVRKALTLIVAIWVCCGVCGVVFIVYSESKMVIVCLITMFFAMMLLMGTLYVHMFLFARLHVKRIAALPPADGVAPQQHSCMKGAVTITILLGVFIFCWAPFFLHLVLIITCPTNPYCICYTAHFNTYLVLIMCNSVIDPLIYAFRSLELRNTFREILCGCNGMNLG

Structure (SMILES) | IC50 (Thromboxane-A synthase) | IC50 [1] | IC50 (B2 bradykinin receptor) | IC50 (Cathepsin G) | IC50 [2] | Ki [2] | IC50 [3] | IC50 (Melanocortin receptor 3; hek293) | IC50 (Melanocortin receptor 3; read-out: IC50) | Ki (Melanocortin receptor 3; read-out: Ki)
CC[C@H](C)C(=O)O[C@H]1CCC=C2C=C[C@H](C)[C@H](CC[C@@H]3C[C@@H](O)CC(=O)O3)[C@H]21 [MEVASTATIN] | Not Active | Not Active | Not Active | Not Active | Not Active | Not Active | Not Active | Not Active |  | 
CCN(CC)CCNC(=O)c1cc(Cl)c(N)cc1OC [METOCLOPRAMIDE] | Not Active | Not Active | Not Active | Not Active | Not Active | Not Active | Not Active | Not Active |  | 
Cc1nnc(NS(=O)(=O)c2ccc(N)cc2)s1 [SULFAMETHIZOLE] | Not Active | Not Active | Not Active | Not Active | Not Active | Not Active | Not Active | Not Active |  | 
CCC(C)(C)C(=O)O[C@H]1C[C@@H](C)C=C2C=C[C@H](C)[C@H](CC[C@@H]3C[C@@H](O)CC(=O)O3)[C@H]21 [SIMVASTATIN] | Not Active | Not Active | Not Active | Not Active | Not Active | Not Active | Not Active | Not Active |  | 
CN1C(=O)OC(C)(C)C1=O [TRIMETHADIONE] | Not Active | Not Active | Not Active | Not Active | Not Active | Not Active | Not Active | Not Active |  | 
CC[C@H](C)[C@@H](CO[C@@H](Cc1ccccc1)C(=O)N[C@@H](CCS(C)(=O)=O)C(=O)OC(C)C)NC[C@@H](N)CS | Not Active | Not Active | Not Active | Not Active | Not Active | Not Active | Not Active |  | 3.39 µM | 2.96 µM
OC[C@@H](O)[C@@H](O)[C@H](O)[C@H](O)CO [MANNITOL] | Not Active | Not Active | Not Active | Not Active | Not Active | Not Active | Not Active | Not Active |  | 
Cc1cn([C@H]2C=C[C@@H](CO)O2)c(=O)[nH]c1=O [STAVUDINE] | Not Active | Not Active | Not Active | Not Active | Not Active | Not Active | Not Active | Not Active |  | 
C[N+]1(C)[C@@H]2C[C@@H](OC(=O)[C@H](CO)c3ccccc3)C[C@H]1[C@@H]1O[C@@H]12.[Br-] [METHSCOPOLAMINE BROMIDE] | Not Active | Not Active | Not Active | Not Active | Not Active | Not Active | Not Active | Not Active |  | 
CC1=C(/C=C/C(C)=C/C=C/C(C)=C/C(=O)O)C(C)(C)CCC1 [TRETINOIN] | Not Active | Not Active | Not Active | Not Active | Not Active | Not Active | Not Active | Not Active |  | 
